For three compounds, AC50, EC50 and IC50 results are on record in ChEMBL document CHEMBL1201862, “PubChem BioAssay data set” (2004).

Activity calls are given as the source filed them.

Type in all cases: functional
The target in test [1] is T1, Replicative DNA helicase DnaB (Mycobacterium tuberculosis, UniProt P9WMR3).
T1 sequence (P9WMR3 whole entry): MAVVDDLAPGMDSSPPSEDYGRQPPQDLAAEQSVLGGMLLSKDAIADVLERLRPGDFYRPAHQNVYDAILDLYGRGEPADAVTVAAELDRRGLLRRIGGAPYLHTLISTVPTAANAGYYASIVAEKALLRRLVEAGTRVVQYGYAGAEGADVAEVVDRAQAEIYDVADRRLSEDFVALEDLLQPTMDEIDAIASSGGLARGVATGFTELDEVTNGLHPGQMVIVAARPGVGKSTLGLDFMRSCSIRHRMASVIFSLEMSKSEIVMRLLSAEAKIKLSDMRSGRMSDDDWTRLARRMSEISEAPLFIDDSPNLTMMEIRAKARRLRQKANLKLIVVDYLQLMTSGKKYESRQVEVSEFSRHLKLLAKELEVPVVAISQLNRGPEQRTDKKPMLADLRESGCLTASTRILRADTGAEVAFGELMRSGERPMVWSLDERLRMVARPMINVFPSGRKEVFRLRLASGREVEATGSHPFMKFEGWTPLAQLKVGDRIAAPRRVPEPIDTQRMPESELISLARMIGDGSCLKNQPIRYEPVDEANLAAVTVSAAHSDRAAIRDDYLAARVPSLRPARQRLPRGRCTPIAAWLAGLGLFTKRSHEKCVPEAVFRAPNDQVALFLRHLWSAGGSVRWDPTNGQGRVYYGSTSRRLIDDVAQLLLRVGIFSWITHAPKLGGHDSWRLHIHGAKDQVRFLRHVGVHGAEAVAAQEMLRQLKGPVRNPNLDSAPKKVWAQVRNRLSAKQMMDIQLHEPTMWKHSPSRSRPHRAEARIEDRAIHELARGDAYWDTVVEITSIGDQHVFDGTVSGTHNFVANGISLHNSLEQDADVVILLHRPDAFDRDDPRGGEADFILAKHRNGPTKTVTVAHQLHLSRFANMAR
Briefly: DnaB intein splicing inhibitors, dose response, biochemical, cell-free fluorescence (AID 449749).

The target of another test is T2, Protein RecA (Mycobacterium tuberculosis, UniProt P9WHJ3).
T2 sequence (P9WHJ3 whole entry): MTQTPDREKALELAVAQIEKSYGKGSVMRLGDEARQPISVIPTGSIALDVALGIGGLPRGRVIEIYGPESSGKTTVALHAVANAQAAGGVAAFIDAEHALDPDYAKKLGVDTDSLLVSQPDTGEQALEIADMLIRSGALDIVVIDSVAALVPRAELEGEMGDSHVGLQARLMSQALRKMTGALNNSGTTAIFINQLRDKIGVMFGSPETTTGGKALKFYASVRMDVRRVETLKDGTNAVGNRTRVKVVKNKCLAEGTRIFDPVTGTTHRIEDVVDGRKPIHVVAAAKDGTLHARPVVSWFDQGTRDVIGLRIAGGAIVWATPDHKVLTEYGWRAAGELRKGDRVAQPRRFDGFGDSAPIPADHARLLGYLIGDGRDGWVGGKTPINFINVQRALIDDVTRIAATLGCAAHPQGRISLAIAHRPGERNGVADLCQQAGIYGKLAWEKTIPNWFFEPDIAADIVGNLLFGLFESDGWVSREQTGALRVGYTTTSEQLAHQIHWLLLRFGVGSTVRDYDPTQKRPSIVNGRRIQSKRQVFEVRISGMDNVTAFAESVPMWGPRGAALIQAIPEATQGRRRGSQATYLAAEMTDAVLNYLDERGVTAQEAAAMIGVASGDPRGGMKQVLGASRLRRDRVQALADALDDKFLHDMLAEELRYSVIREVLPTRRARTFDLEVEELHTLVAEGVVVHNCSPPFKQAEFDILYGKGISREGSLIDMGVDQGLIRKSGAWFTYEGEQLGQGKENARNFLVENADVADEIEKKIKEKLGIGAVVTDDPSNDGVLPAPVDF
Briefly: Fluorescence Cell-Free Homogeneous Dose Retest to Identify Inhibitors of RecA-Intein Splicing Activity. [Related pubchem assays (depositor defined):AID2097, AID2223, AID489010, AID492950].

A further test concerns the target T3, Caspase-3 (Homo sapiens, UniProt P42574).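 Further: Dose-response selectivity test against caspase-3 for candidate inhibitors of sentrin-specific proteases (SENPs).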
T3 sequence (P42574 whole entry): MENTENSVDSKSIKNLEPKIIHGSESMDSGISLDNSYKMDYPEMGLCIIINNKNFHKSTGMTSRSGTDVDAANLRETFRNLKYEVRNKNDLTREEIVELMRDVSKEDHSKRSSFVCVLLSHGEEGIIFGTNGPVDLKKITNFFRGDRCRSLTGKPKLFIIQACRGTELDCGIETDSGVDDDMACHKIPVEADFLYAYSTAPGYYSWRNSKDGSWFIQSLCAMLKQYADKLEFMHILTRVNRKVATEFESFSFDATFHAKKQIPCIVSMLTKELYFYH

Test [2] has as its target T4, Sentrin-specific protease 7 (Homo sapiens, UniProt Q9BQF6).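 Further: Luminescence-based dose-response confirmation of ultra-high-throughput screening hits, measuring inhibition of SENP7.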
T4 sequence (Q9BQF6 whole entry): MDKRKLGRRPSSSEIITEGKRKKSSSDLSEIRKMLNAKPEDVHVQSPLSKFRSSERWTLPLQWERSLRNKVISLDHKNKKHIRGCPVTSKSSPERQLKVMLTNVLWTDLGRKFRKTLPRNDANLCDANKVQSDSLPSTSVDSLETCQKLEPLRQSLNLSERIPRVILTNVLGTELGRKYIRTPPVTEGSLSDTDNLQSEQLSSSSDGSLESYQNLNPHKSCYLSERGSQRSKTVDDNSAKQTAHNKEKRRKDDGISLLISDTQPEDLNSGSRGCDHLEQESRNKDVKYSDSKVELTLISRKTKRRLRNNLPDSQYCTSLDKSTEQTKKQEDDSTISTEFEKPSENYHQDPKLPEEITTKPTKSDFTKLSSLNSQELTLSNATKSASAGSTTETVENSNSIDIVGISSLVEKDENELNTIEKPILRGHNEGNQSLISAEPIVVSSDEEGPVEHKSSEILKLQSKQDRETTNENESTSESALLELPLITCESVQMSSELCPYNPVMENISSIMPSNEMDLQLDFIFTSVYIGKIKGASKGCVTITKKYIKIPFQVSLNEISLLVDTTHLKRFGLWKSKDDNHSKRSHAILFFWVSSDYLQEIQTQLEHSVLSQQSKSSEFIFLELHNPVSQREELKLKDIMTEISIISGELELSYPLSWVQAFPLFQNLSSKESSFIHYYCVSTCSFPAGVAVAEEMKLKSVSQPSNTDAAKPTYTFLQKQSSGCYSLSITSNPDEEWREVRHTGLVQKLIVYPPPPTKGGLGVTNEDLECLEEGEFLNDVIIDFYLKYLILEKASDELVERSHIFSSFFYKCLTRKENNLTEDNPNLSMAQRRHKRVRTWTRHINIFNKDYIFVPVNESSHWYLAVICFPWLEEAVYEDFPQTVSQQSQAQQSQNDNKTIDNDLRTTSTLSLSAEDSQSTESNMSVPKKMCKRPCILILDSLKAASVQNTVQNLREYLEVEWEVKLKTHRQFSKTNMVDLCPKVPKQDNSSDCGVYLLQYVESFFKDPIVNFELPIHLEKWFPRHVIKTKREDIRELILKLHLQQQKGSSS

Broadly, the AC50 is the concentration giving half of the maximal activity seen. The term EC50 denotes the concentration giving half of the maximal effect. On to `O=C(Nc1ccccc1)c1nnsc1[S+]([O-])c1ccc(Cl)cc1` (stereo not given), for which the AC50 in test [1] was 0.964 µM (active). Further, at Protein RecA, the EC50 is 5.92 µM (active).

The IC50 is the midpoint of a concentration-inhibition curve. As to `CC1OC(Nc2cccc3ccccc23)C(O)C(O)C1O` (stereo not given), the IC50 on Caspase-3 is 9.4 µM (active); in test [2], 7.53 µM (active). Also, the AC50 in test [1] is > 380 µM (inactive). In addition, the 50% effective concentration (EC50) on Protein RecA is 75.1 µM (active).

Turning to `O=C1C=C(Nc2ccccc2)c2ccccc2C1=O`, the IC50 was 18.6 µM (active) on Caspase-3 and 12.2 µM (active) in test [2]. Further, the AC50 in test [1] was 0.664 µM (active). Further, the EC50 on Protein RecA is 0.723 µM (active).
